Results reported in patent US20250195521A1 (Revolution Medicines, Inc., priority 2020, published 2025).
Read-outs that look alike come from different tables or passages of the source.

Test system: NCI-H358 (K-Ras G12C)
Assay: CellTiter-Glo cell viability assay, NCI-H358
Format: cell-based, human
Description: Determination of Cell Viability in RAS Mutant Cancer Cell Lines Protocol: CellTiter-Glo® Cell Viability Assay
Note—The following protocol describes a procedure for monitoring cell viability of K-Ras mutant cancer cell lines in response to a compound of the invention. Other RAS isoforms may be employed, though the number of cells to be seeded will vary based on cell line used.
Test compounds (132.5 nL) were directly dispensed into the assay plates containing cells. […] On day 5, assay plates and their contents were equilibrated to room temperature for approximately 30 minutes. […] Luminescence was measured using the PerkinElmer Enspire. Data were normalized by the following: (Sample signal/Avg. DMSO)*100. The data were fit using a four-parameter logistic fit.

[1] = Homo sapiens, NCI-H358, 120 h, 5-day treatment, read-out: H358 Cell Viability assay data (K-Ras G12C, IC50)
[2] = 5-day treatment, read-out: H358 Cell Viability assay data (K-Ras G12C, IC50)

SMILES | IC50 [1] [µM] | other results
C=CC(=O)N1CC[C@H](C(=O)N(C)[C@H](C(=O)N[C@H]2Cc3cc(O)cc(c3)-c3ccc4c(c3)c(c(-c3ncccc3COC)n4CC)CC(C)(C)COC(=O)[C@@H]3CCCN(N3)C2=O)C(C)C)C1 [Compound A16] | 0.01 to 0.1 | –
CCn1c(-c2cnccc2COC)c2c3cc(ccc31)-c1cc(O)cc(c1)C[C@H](NC(=O)[C@H](C(C)C)N(C)C(=O)[C@H]1CCN(C=O)C1)C(=O)N1CCC[C@H](N1)C(=O)OCC(C)(C)C2 [Compound A17, (2S)—N-[(8S,14S)-22-ethyl-4-hydroxy-21-[4-(methoxymethyl)pyridin-3-yl]-18,18-dimethyl-9,15-dioxo-16-oxa-10,22,28-triazapentacyclo [18.5.2.1^2,6.1^10,14.0^23,27]nonacosa-1 (26), 2,4,6 (29),20,23 (27),24-heptaen-8-yl]-2-{1-[(3S)-1-formylpyrrolidin-3-yl]-N-methylformamido}-3-methylbutanamide] | 0.1 to 1 | –
CCn1c(-c2cnccc2COC)c2c3cc(ccc31)-c1cc(O)cc(c1)C[C@H](NC(=O)[C@H](C(C)C)N(C)C(=O)[C@H]1CCN(C(=O)C(C)C)C1)C(=O)N1CCC[C@H](N1)C(=O)OCC(C)(C)C2 [Compound A29] | 0.1 to 1 | –
C=CC(=O)N1CC[C@H](C(=O)N(C)[C@H](C(=O)N[C@H]2Cc3cc(O)cc(c3)-c3ccc4c(c3)c(c(-c3ccc(C5CCN(C)CC5)cc3)n4CC)CC(C)(C)COC(=O)[C@@H]3CCCN(N3)C2=O)C(C)C)C1 [Compound A39] | 0.01 to 0.1 | –
C=CC(=O)N1CC[C@H](C(=O)N(C)[C@H](C(=O)N[C@H]2Cc3cc(O)cc(c3)-c3ccc4c(c3)c(c(-c3ccc5c(c3)CCN(C)C5)n4CC)CC(C)(C)COC(=O)[C@@H]3CCCN(N3)C2=O)C(C)C)C1 [Compound A40] | 0.01 to 0.1 | –
CCn1c(-c2ccccc2CN(C)C)c2c3cc(ccc31)-c1cc(O)cc(c1)C[C@H](NC(=O)[C@H](C(C)C)N(C)C(=O)c1ccc(NC(=O)/C=C/CN(C)C)cn1)C(=O)N1CCC[C@H](N1)C(=O)OCC(C)(C)C2 [Compound A46] | > 10 | –
CCn1c(-c2cnccc2COC)c2c3cc(ccc31)-c1cc(O)cc(c1)C[C@H](NC(=O)[C@@H](OC(=O)N(C)C)C(C)C)C(=O)N1CCC[C@H](N1)C(=O)OCC(C)(C)C2 [Compound A53] | 0.1 to 1 | –
C=CC(=O)N1CC[C@H](C(=O)N(C)[C@H](C(=O)N[C@H]2Cc3cc(O)cc(c3)-c3ccc4c(c3)c(c(-c3cncnc3)n4CC)CC(C)(C)COC(=O)[C@@H]3CCCN(N3)C2=O)C(C)C)C1 [Compound A61] | 0.01 to 0.1 | –
C=CC(=O)N1CC[C@@]2(CCCN([C@H](C(=O)N[C@H]3Cc4cc(O)cc(c4)-c4ccc5c(c4)c(c(-c4ccccc4CCOC)n5CC)CC(C)(C)COC(=O)[C@@H]4CCCN(N4)C3=O)C(C)C)C2=O)C1 [Compound A63] | 0.1 to 1 | –
CCn1c(-c2cccnc2COC)c2c3cc(ccc31)-c1cc(O)cc(c1)C[C@H](NC(=O)[C@H](C(C)C)N(C)C(=O)[C@H]1CCN(C(=O)/C=C/CN3CCN(C)CC3)C1)C(=O)N1CCC[C@H](N1)C(=O)OCC(C)(C)C2 [Compound A72] | > 10 | –
C=CC(=O)N1CC[C@H](C(=O)N(C)[C@H](C(=O)N[C@H]2Cc3cc(O)cc(c3)-c3ccc4c(c3)c(c(-c3cccnc3)n4C(C)(C)C#N)CC(C)(C)COC(=O)[C@@H]3CCCN(N3)C2=O)C(C)C)C1 [Compound A74] | – | IC50 [2]: 0.01 to 0.1 µM
C=CC(=O)N1CC[C@H](C(=O)N(C)[C@H](C(=O)N[C@H]2Cc3cc(O)cc(c3)-c3ccc4c(c3)c(c(-c3cnccc3[C@H](C)OC)n4CC)CC(C)(C)COC(=O)[C@@H]3CCCN(N3)C2=O)C(C)C)C1 [Compound A76] | < 0.01 | –
CCn1c(-c2ccccc2COC)c2c3cc(ccc31)-c1cc(O)cc(c1)C[C@H](NC(=O)[C@H](C(C)C)N(C)C(=O)[C@H]1CCN(C(=O)/C=C/CN(C)C)C1)C(=O)N1CCC[C@H](N1)C(=O)OCC(C)(C)C2 [Compound A79] | 0.01 to 0.1 | –
CCn1c(-c2cnccc2COC)c2c3cc(ccc31)-c1cc(O)cc(c1)C[C@H](NC(=O)[C@H](C(C)C)N(C)C(=O)C1CCN(C)CC1)C(=O)N1CCC[C@H](N1)C(=O)OCC(C)(C)C2 [Compound A84] | 0.1 to 1 | –
C=CC(=O)N1CC[C@H](C(=O)N(C)[C@H](C(=O)N[C@H]2Cc3cc(O)cc(c3)-c3ccc4c(c3)c(c(-c3cnccc3[C@H](C)OC)n4CC)CC(C)(C)COC(=O)[C@@H]3CCCN(N3)C2=O)C(C)C)C1 [Compound A112] | – | IC50 [2]: < 0.01 µM
C=CC(=O)N1CC[C@H](C(=O)N(C)[C@H](C(=O)N[C@H]2Cc3cccc(c3)-c3ccc4c(c3)c(c(-c3cnccc3[C@H](C)OC)n4CC)CC(C)(C)COC(=O)[C@@H]3CCCN(N3)C2=O)C(C)C)C1 [Compound A122] | – | IC50 [2]: > 10 µM
C=CC(=O)N1CC[C@H](C(=O)N(C)[C@H](C(=O)N[C@H]2Cc3cc(O)cc(c3)-c3ccc4c(c3)c(c(-c3cc(C)cnc3[C@H](C)OC)n4CC)CC(C)(C)COC(=O)[C@@H]3CCCN(N3)C2=O)C(C)C)C1 [Compound A167] | – | IC50 (Homo sapiens, NCI-H358, 120 h, read-out: H358 Cell Viability assay data (K-Ras G12C, IC50, uM), 5-day treatment): < 0.01 µM
CC#CC(=O)N1CC[C@H](C(=O)N(C)[C@@H](C(=O)N[C@H]2Cc3cc(O)cc(c3)-c3ccc4c(c3)c(c(-c3cccnc3[C@H](C)OC)n4CC)CC(C)(C)COC(=O)[C@@H]3CCCN(N3)C2=O)C(C)C)C1 [Compound A198] | – | IC50 (read-out: H358 Cell Viability assay data (K-Ras G12C, IC50), 5-day treatment): > 10 µM

Second part, led by results:

IC50 [1] [µM] | SMILES | other results
> 10 | CCn1c(-c2ccccc2CN(C)C)c2c3cc(ccc31)-c1cc(O)cc(c1)C[C@H](NC(=O)[C@H](C(C)C)N(C)C(=O)c1nc(NC(=O)/C=C/CN(C)C)cs1)C(=O)N1CCC[C@H](N1)C(=O)OCC(C)(C)C2 [Compound A90] | –
< 0.01 | CCn1c(-c2cccnc2[C@H](C)OC)c2c3cc(ccc31)-c1cccc(c1)C[C@H](NC(=O)[C@H](C(C)C)N(C)C(=O)[C@H]1CCN(C(=O)CN(C)C)C1)C(=O)N1CCC[C@H](N1)C(=O)OCC(C)(C)C2 [Compound A96] | –
> 10 | C=CC(=O)N1CC[C@H](C(=O)N(C)[C@H](C(=O)N[C@H]2Cc3cc(O)cc(c3)-c3cc4c(c(-c5ccccc5CCOC)n(CC)c4cn3)CC(C)(C)COC(=O)[C@@H]3CCCN(N3)C2=O)C(C)C)C1 [Compound A102] | –
> 10 | C=CC(=O)N1CCN(C(=O)N(C)[C@H](C(=O)N[C@H]2Cc3cc(O)cc(c3)-c3ccc4c(c3)c(c(-c3ccccc3CCOC)n4CC)CC(C)(C)COC(=O)[C@@H]3CCCN(N3)C2=O)C(C)C)C[C@@H]1COC [Compound A125] | –
> 10 | CCn1c(-c2ccccc2CN(C)C)c2c3cc(ccc31)-c1cc(O)cc(c1)C[C@H](NC(=O)[C@@H](C(C)C)N(C)C(=O)c1ncc(NC(=O)/C=C/CN(C)C)n1C)C(=O)N1CCC[C@H](N1)C(=O)OCC(C)(C)C2 [Compound A126] | –
< 0.01 | CCn1c(-c2cnccc2[C@H](C)OC)c2c3cc(ccc31)-c1cccc(c1)C[C@H](NC(=O)[C@H](C1CCCC1)N(C)C(=O)[C@H]1CCN(C(=O)C#CCN(C)C)C1)C(=O)N1CCC[C@H](N1)C(=O)OCC(C)(C)C2 [Compound A133] | –
> 10 | C=CC(=O)N1CC[C@H](C(=O)N(C)[C@H](C(=O)N[C@H]2Cc3cc(ccn3)-c3ccc4c(c3)c(c(-c3cccnc3COC)n4CC)CC(C)(C)COC(=O)[C@@H]3CCCN(N3)C2=O)C(C)C)C1 [Compound A136] | –
0.01 to 0.1 | C=CC(=O)N1CC[C@H](C(=O)N(C)[C@H](C(=O)N[C@H]2Cc3cc(O)cc(c3)-c3ccc4c(c3)c(c(-c3cc(CN(C)C)cnc3COC)n4CC)CC(C)(C)COC(=O)[C@@H]3CCCN(N3)C2=O)C(C)C)C1 [Compound A149] | –
0.1 to 1 | C=CC(=O)N1CC[C@H](C(=O)N(C)[C@H](C(=O)N[C@H]2Cc3cc(O)cc(c3)-c3ccc4c(c3)c(c(-c3cccnc3)n4C3CC3)CC(C)(C)COC(=O)[C@@H]3CCCN(N3)C2=O)C(C)C)C1 [Compound A160] | –
> 10 | C=CC(=O)N1CC(NC[C@H](C(=O)N[C@H]2Cc3cc(O)cc(c3)-c3ccc4c(c3)c(c(-c3cccnc3COC)n4CC)CC(C)(C)COC(=O)[C@@H]3CCCN(N3)C2=O)C(C)C)C1 [Compound A174] | –
> 10 | C/C=C(\C#N)C(=O)N1CC[C@H](C(=O)N(C)[C@H](C(=O)N[C@H]2Cc3cc(O)cc(c3)-c3ccc4c(c3)c(c(-c3cccnc3COC)n4CC)CC(C)(C)COC(=O)[C@@H]3CCCN(N3)C2=O)C(C)C)C1 [Compound A178] | –
> 10 | C=CC(=O)N1CC[C@@H](C(=O)N(C)[C@H](C(=O)N[C@H]2Cc3cc(O)cc(c3)-c3ccc4c(c3)c(c(-c3cncnc3)n4CC)CC(C)(C)COC(=O)[C@@H]3CCCN(N3)C2=O)C(C)C)O1 [Compound A179] | –
> 10 | C=CC(=O)N1CC[C@H](C(=O)N(C)[C@H](C(=O)N[C@H]2Cc3cc(O)cc(c3)-c3ccc4c(c3)c(c(-c3cncnc3)n4CC)CC(C)(C)COC(=O)[C@@H]3CCCN(N3)C2=O)C(C)C)O1 [Compound A180] | –
< 0.01 | CCn1c(-c2cccnc2[C@H](C)OC)c2c3cc(ccc31)-c1cc(O)cc(c1)C[C@H](NC(=O)[C@H](C(C)C)N(C)C(=O)[C@H]1CCN(C(=O)C#CCN3CCOCC3)C1)C(=O)N1CCC[C@H](N1)C(=O)OCC(C)(C)C2 [Compound A182] | –
> 10 | COCc1ncccc1-c1nc2ccc3cc2n1CC(C)(C)COC(=O)[C@@H]1CCCN(N1)C(=O)[C@@H](NC(=O)[C@H](C(C)C)N(C)C(=O)[C@H]1CCN(C(=O)C#CCN2CCOCC2)C1)Cc1cc(O)cc-3c1 [Compound A188] | –
> 10 | CCn1c(-c2cccnc2COC)c2c3cc(ccc31)-c1cc(O)cc(c1)C[C@H](NC(=O)[C@H](C(C)C)N(C)C(=O)[C@H]1CCN(C(=O)C#CCN3CCN(C)CC3)C1)C(=O)N1CCC[C@H](N1)C(=O)OCC(C)(C)C2 [Compound A189] | –
> 10 | CCn1c(-c2cncnc2)c2c3cc(ccc31)-c1cccc(c1)[C@@H](OC)[C@H](NC(=O)[C@H](C(C)C)N(C)C(=O)[C@H]1CCN(C(=O)C#CCN3CCOCC3)C1)C(=O)N1CCC[C@H](N1)C(=O)OCC(C)(C)C2 [Compound A208] | –
